What follows are compounds tested against T1, Endothelin-1 receptor (Rattus norvegicus) (UniProt P26684) (assay: Inhibition of (125 I)-endothelin 1 binding to endothelin A receptor in rat ventricle). Details: not given.
T1 sequence (whole entry): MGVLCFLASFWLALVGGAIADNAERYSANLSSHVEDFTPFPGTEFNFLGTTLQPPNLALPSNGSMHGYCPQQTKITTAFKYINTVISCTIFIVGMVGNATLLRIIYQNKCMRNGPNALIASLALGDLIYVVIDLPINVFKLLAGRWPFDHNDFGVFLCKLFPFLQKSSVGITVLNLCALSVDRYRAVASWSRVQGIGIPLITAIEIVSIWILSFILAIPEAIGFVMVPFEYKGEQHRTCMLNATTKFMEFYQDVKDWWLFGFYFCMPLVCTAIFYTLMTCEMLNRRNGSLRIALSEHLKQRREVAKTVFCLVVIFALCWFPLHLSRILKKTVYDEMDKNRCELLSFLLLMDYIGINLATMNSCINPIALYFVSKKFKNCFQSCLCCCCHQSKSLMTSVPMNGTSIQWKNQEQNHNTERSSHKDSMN

Binding affinity [nM] | SMILES
1.9 | COc1cc(Cc2c(C(=O)O)n(Cc3cc4c(cc3Cl)OCO4)c3ccccc3c2=O)cc(OC)c1OC
1.6 | COc1ccc(Cc2c(C(=O)O)n(Cc3cc4c(cc3Cl)OCO4)c3ccccc3c2=O)cc1
8.2 | COC(=O)c1cccc(Cc2c(C(=O)O)n(Cc3cc4c(cc3Cl)OCO4)c3ccccc3c2=O)c1
10.7 | COc1ccc(Cc2c(C(=O)O)n(Cc3ccc4c(c3)OCO4)c3ccccc3c2=O)cc1
3.4 | O=C(O)C[C@H]1CC[C@H](Cc2c(C(=O)O)n(Cc3cc4c(cc3Cl)OCO4)c3ccccc3c2=O)CC1
18.9 | COc1ccc(Cc2c(C(=O)O)n(Cc3cc(Br)c4c(c3)OCO4)c3ccccc3c2=O)cc1
255 | COc1ccc(Cn2c(C(=O)O)c(Cc3ccc4c(c3)OCO4)c(=O)c3ccccc32)cc1
93 | O=C(O)CCCCCc1c(C(=O)O)n(Cc2cc3c(cc2Cl)OCO3)c2ccccc2c1=O
8700 | O=C(O)c1cc(=O)c2ccccc2n1Cc1cc2c(cc1Cl)OCO2
7.8 | COc1ccc(Cc2c(C(=O)O)n(Cc3cc4c(cc3Br)OCO4)c3ccccc3c2=O)cc1
1 | CCc1cc2c(cc1Cn1c(C(=O)O)c(Cc3ccc(OC)cc3)c(=O)c3ccccc31)OCO2
9.5 | COc1ccc(Cc2c(C(=O)O)n(Cc3cc(OC)c4c(c3)OCO4)c3ccccc3c2=O)cc1
5.6 | C=Cc1ccc(Cc2c(C(=O)O)n(Cc3cc4c(cc3Cl)OCO4)c3ccccc3c2=O)cc1
54.3 | COc1ccc(Cc2c(C(=O)O)n(Cc3cc4c(cc3Cl)OCO4)c3ccccc3c2=O)c(OCC(=O)O)c1
7600 | CCCCc1cn(Cc2ccc(-c3ccccc3C(=O)O)cc2)c2ccc(Cn3ccc4ccccc43)cc2c1=O
4.7 | CCOC(=O)C[C@H]1CC[C@H](Cc2c(C(=O)O)n(Cc3cc4c(cc3Cl)OCO4)c3ccccc3c2=O)CC1
1.1 | O=C(O)c1c(CC2CCCCC2)c(=O)c2ccccc2n1Cc1cc2c(cc1Cl)OCO2
20.4 | O=C(O)c1c(Cc2cccnc2)c(=O)c2ccccc2n1Cc1cc2c(cc1Cl)OCO2
11000 | CCCCc1cn(Cc2ccc(-c3ccccc3-n3cnnn3)cc2)c2ccc(CSc3ccccn3)cc2c1=O
1.8 | C=Cc1cc2c(cc1Cn1c(C(=O)O)c(Cc3ccc(OC)cc3)c(=O)c3ccccc31)OCO2
3 | O=C(O)c1cccc(Cc2c(C(=O)O)n(Cc3cc4c(cc3Cl)OCO4)c3ccccc3c2=O)c1
4.6 | O=C(O)c1ccc(Cc2c(C(=O)O)n(Cc3cc4c(cc3Cl)OCO4)c3ccccc3c2=O)cc1
10.9 | O=C(O)c1c(Cc2cccc(Cl)c2Cl)c(=O)c2ccccc2n1Cc1cc2c(cc1Cl)OCO2
5.7 | O=C(O)c1c(Cc2ccco2)c(=O)c2ccccc2n1Cc1cc2c(cc1Cl)OCO2
5.7 | O=C(O)c1c(Cc2ccc(Br)cc2)c(=O)c2ccccc2n1Cc1cc2c(cc1Cl)OCO2
29 | O=C(O)c1c(Cc2ccoc2)c(=O)c2ccccc2n1Cc1cc2c(cc1Cl)OCO2
4.1 | O=C(O)c1c(Cc2ccccc2)c(=O)c2ccccc2n1Cc1cc2c(cc1Cl)OCO2

SMILES | Binding affinity [nM]
CCc1cc2c(cc1Cn1c(C(=O)[O-])c(Cc3cccc(C(=O)[O-])c3)c(=O)c3ccccc31)OCO2.[K+].[K+] | 0.69

These compounds were tested on Mus musculus (assay: Effective dose for ET-1 induced death in mice after peroral administration). Details: po.
Assay type: functional

SMILES | ED50 [mg/kg]
CCc1cc2c(cc1Cn1c(C(=O)[O-])c(Cc3cccc(C(=O)[O-])c3)c(=O)c3ccccc31)OCO2.[K+].[K+] | 10

Each compound was assayed on Rattus norvegicus (assay: Effective dose in rat after intravenous administration). Details: not given.
Assay type: functional

SMILES | ED50 [mg/kg]
CCc1cc2c(cc1Cn1c(C(=O)[O-])c(Cc3cccc(C(=O)[O-])c3)c(=O)c3ccccc31)OCO2.[K+].[K+] | 0.1

These compounds were tested against T2, Endothelin receptor type B (Rattus norvegicus) (UniProt P21451). Details: Cerebellum.
T2 sequence (whole entry): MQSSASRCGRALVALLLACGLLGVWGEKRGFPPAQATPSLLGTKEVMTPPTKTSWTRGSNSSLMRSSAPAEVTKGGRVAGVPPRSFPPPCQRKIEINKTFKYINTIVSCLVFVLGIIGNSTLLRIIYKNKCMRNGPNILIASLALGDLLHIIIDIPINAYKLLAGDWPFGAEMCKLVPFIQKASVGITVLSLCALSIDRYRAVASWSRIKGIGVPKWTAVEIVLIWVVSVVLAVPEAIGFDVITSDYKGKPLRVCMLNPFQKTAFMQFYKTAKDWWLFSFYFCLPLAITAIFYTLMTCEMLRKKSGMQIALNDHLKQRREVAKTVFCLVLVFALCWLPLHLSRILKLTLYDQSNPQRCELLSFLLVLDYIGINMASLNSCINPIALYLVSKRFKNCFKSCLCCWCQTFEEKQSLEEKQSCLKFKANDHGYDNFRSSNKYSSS
Description: Inhibition of (125 I)-endothelin 1 binding to endothelin B receptor in rat cerebellum

Binding affinity [nM] | SMILES
789 | COc1cc(Cc2c(C(=O)O)n(Cc3cc4c(cc3Cl)OCO4)c3ccccc3c2=O)cc(OC)c1OC
216 | COc1ccc(Cc2c(C(=O)O)n(Cc3cc4c(cc3Cl)OCO4)c3ccccc3c2=O)cc1
747 | COC(=O)c1cccc(Cc2c(C(=O)O)n(Cc3cc4c(cc3Cl)OCO4)c3ccccc3c2=O)c1
606 | COc1ccc(Cc2c(C(=O)O)n(Cc3ccc4c(c3)OCO4)c3ccccc3c2=O)cc1
6630 | O=C(O)C[C@H]1CC[C@H](Cc2c(C(=O)O)n(Cc3cc4c(cc3Cl)OCO4)c3ccccc3c2=O)CC1
16000 | COc1ccc(Cn2c(C(=O)O)c(Cc3ccc4c(c3)OCO4)c(=O)c3ccccc32)cc1
9500 | O=C(O)CCCCCc1c(C(=O)O)n(Cc2cc3c(cc2Cl)OCO3)c2ccccc2c1=O
29000 | O=C(O)c1cc(=O)c2ccccc2n1Cc1cc2c(cc1Cl)OCO2
244 | COc1ccc(Cc2c(C(=O)O)n(Cc3cc4c(cc3Br)OCO4)c3ccccc3c2=O)cc1
69 | CCc1cc2c(cc1Cn1c(C(=O)O)c(Cc3ccc(OC)cc3)c(=O)c3ccccc31)OCO2
244 | COc1ccc(Cc2c(C(=O)O)n(Cc3cc(OC)c4c(c3)OCO4)c3ccccc3c2=O)cc1
190 | C=Cc1ccc(Cc2c(C(=O)O)n(Cc3cc4c(cc3Cl)OCO4)c3ccccc3c2=O)cc1
549 | COc1ccc(Cc2c(C(=O)O)n(Cc3cc4c(cc3Cl)OCO4)c3ccccc3c2=O)c(OCC(=O)O)c1
110000 | CCCCc1cn(Cc2ccc(-c3ccccc3C(=O)O)cc2)c2ccc(Cn3ccc4ccccc43)cc2c1=O
5000 | CCOC(=O)C[C@H]1CC[C@H](Cc2c(C(=O)O)n(Cc3cc4c(cc3Cl)OCO4)c3ccccc3c2=O)CC1
100 | O=C(O)c1c(CC2CCCCC2)c(=O)c2ccccc2n1Cc1cc2c(cc1Cl)OCO2
1600 | O=C(O)c1c(Cc2cccnc2)c(=O)c2ccccc2n1Cc1cc2c(cc1Cl)OCO2
12000 | CCCCc1cn(Cc2ccc(-c3ccccc3-n3cnnn3)cc2)c2ccc(CSc3ccccn3)cc2c1=O
70 | C=Cc1cc2c(cc1Cn1c(C(=O)O)c(Cc3ccc(OC)cc3)c(=O)c3ccccc31)OCO2
500 | O=C(O)c1cccc(Cc2c(C(=O)O)n(Cc3cc4c(cc3Cl)OCO4)c3ccccc3c2=O)c1
17100 | O=C(O)c1ccc(Cc2c(C(=O)O)n(Cc3cc4c(cc3Cl)OCO4)c3ccccc3c2=O)cc1
570 | O=C(O)c1c(Cc2cccc(Cl)c2Cl)c(=O)c2ccccc2n1Cc1cc2c(cc1Cl)OCO2
1890 | O=C(O)c1c(Cc2ccco2)c(=O)c2ccccc2n1Cc1cc2c(cc1Cl)OCO2
166 | O=C(O)c1c(Cc2ccc(Br)cc2)c(=O)c2ccccc2n1Cc1cc2c(cc1Cl)OCO2
1900 | O=C(O)c1c(Cc2ccoc2)c(=O)c2ccccc2n1Cc1cc2c(cc1Cl)OCO2
157 | O=C(O)c1c(Cc2ccccc2)c(=O)c2ccccc2n1Cc1cc2c(cc1Cl)OCO2

SMILES | Binding affinity [nM]
CCc1cc2c(cc1Cn1c(C(=O)[O-])c(Cc3cccc(C(=O)[O-])c3)c(=O)c3ccccc31)OCO2.[K+].[K+] | 571

Reference: ChEMBL document CHEMBL1133222 (2000)
